From patent US10064858B2, “Methods and compositions for treating bacterial infections with iron chelators” (THE UNITED STATES OF AMERICA, AS REPRESENTED BY THE …, priority 2011, dated 2018)
Read-outs that look alike come from different tables or passages of the source.

Columns and labels:
Type in all cases: cell-based
[1] = test system: clinical isolates of A. baumannii; test: MIC for clinical isolates in CAMHB media (Table 3); settings: Acinetobacter baumannii
Method: Individual MICs were determined following the microdilution method recommended by CLSI in cationic-adjusted Mueller-Hinton Broth (CAMHB), or M9 media. […] Tests were performed in triplicate. MIC of iron chelators were determined for noscomial ESKAPE pathogens.

Acinetobacter baumannii = test: MIC, CLSI microdilution (Tables 1 and 6)
Procedure, shortened: (§1)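 Broth microdilution per CLSI in cation-adjusted Mueller-Hinton broth against standard MDR strains and clinical isolates of ESKAPE pathogens. MIC taken as lowest inhibitory concentration of iron chelator; triplicate determinations.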

S. aureus = test: MIC, CLSI microdilution (Tables 1 and 6); settings: Staphylococcus aureus, Table 1, read-out: MIC of Iron Chelators
Procedure, shortened: as §1

E. coli = test: MIC, CLSI microdilution (Tables 1 and 6); settings: Escherichia coli, Table 1, read-out: MIC of Iron Chelators
Procedure, shortened: as §1

K. pneumonia = test: MIC, CLSI microdilution (Tables 1 and 6); settings: Klebsiella pneumoniae, Table 1, read-out: MIC of Iron Chelators
Procedure, shortened: as §1

P. aeruginosa = test: MIC, CLSI microdilution (Tables 1 and 6); settings: Pseudomonas aeruginosa, Table 1, read-out: MIC of Iron Chelators
Procedure, shortened: as §1

[2] = test system: AB5075 a MDR-clinical isolate of A. baumannii; test: Time-kill assay in CAMHB; settings: for effect on CFU/ml (time-kill, FIG. 13): 2 and 6 hours; for time-kill course of CFU/mL: 24 hours (FIG. 8A)
Method: Reductions in colony forming units (CFU)/mL were determined over time (time-kill assay) after exposure to VK28 and deferiprone (DFP), the two iron chelators that performed best in MIC assays when compared to controls. To better represent the iron content found in the human body, MIC and time-kill assays were also determined in minimal media and tissue culture media. Time-Kill assays were performed as previously described in G. P. Neupane et al., “In vitro time-kill activities of ciprofloxacin alone and in combination with the iron chelator deferasirox against Vibrio vulnificus,” European Journal of Clinical Microbiology and Infectious Diseases, 407-410 (2010); and R. L. White, et al., “Comparison of Three Different In Vitro Methods of Detecting synergy: Time-Kill, Checkerboard, and E test,” Journal of Antimicrobial Agents and Chemotherapy, 1914-1918 (1996). Initial inocula, for example 1×10^6 CFU/mL or 1×10^7 CFU/mL were challenged with iron chelator with and/or without an antibiotic. Cells were allowed to grow in CAMHB at 37° C. for 24 hours. Time-kill results were analyzed by determining the change in log 10 numbers of CFU/ml at 0, 6, and 24 h, compared to counts at 0 h. Antimicrobials were considered bactericidal at the lowest concentration that reduced the size of the original inoculum by >3 log 10 CFU/ml (99.9%) over each of the time periods and were considered bacteriostatic if the inoculum's size was reduced by 0 to <3 log 10 CFU/ml.
In this example, time-kill assays were performed as described in Example 9 using Apo6619 as the iron chelator against AB5075 (MRSN959), the MDR-clinical isolate of A. baumannii. The initial inocula was 1×10^6 CFU/mL, and were challenged with 0.5×MIC, 1×MIC and 2×MIC of Apo6619. Time-kill results were analyzed by determining the change in log 10 numbers of CFU/mL at 0, 2 and 4 hours.
In this example, time-kill assays were performed as described in Example 9 using VK28 or DFP as the iron chelator against AB5075, the MDR-clinical isolate of A. baumannii. The initial inocula was 1×10^6 CFU/mL, and were challenged with 0.5×MIC, 1×MIC and 2×MIC of either VK28 or DFP. Time-kill results were analyzed by determining the change in log 10 numbers of CFU/mL at 2 and 6 hours.

[3] = test system: A. baumannii AB 19606, AB 17978; test: Checkerboard assay, chelator with antibiotic (FIC)
From the text: Drug interactions were initially evaluated with the “checkerboard” microdilution design, which provided a matrix of all drug combinations assayed in terms of fractions of the previously determined MIC. The checkerboard microdilution design is described in R. J. Tallarida, “Drug Synergism: Its Detection and Applications,” Journal of Pharmacology and Experimental Therapeutics, 865-872 (2001); and in R. L. White, et al., (1996), supra. FIGS. 39A and 39B show the wellplates having different concentrations of iron chelator and antibiotic, as labeled along the x-axis and y-axis. […] The checkerboard assay was used to asses other combinations of iron chelators and antibiotics. The fractional inhibitory concentration index (FIC), which was calculated as follows: FIC=(MIC A in combination/MIC A)+(MIC B in combination/MIC B). […] Blank spaces indicate concentrations not tested. […] Against the species PA PAO1 and PA 27853, all the antibiotics except for Ami.

SMILES: OCCN1CCN(Cc2ccc(O)c3ncccc23)CC1 [VK28, 5-(4-(2-hydroxyethyl)piperazin-1-ylmethyl)-8-hydroxyquinoline]
- MIC ([1]; AB967, read-out: MIC of Iron Chelators): 250 µg/mL
- MIC ([1]; AB2828, read-out: MIC of Iron Chelators): 250 µg/mL
- MIC ([1]; AB3340, read-out: MIC of Iron Chelators): 250 µg/mL
- MIC ([1]; AB3560, read-out: MIC of Iron Chelators): 250 µg/mL
- MIC ([1]; AB3638, read-out: MIC of Iron Chelators): 250 µg/mL
- MIC ([1]; AB3785, read-out: MIC of Iron Chelators): 250 µg/mL
- MIC ([1]; AB3806, read-out: MIC of Iron Chelators): 500 µg/mL
- MIC ([1]; AB3917, read-out: MIC of Iron Chelators): 500 µg/mL
- MIC ([1]; AB3927, read-out: MIC of Iron Chelators): 250 µg/mL
- MIC ([1]; AB4025, read-out: MIC of Iron Chelators): 250 µg/mL
- MIC ([1]; AB4026, read-out: MIC of Iron Chelators): 250 µg/mL
- MIC ([1]; AB4027, read-out: MIC of Iron Chelators): 250 µg/mL
- MIC ([1]; AB4052, read-out: MIC of Iron Chelators): 500 µg/mL
- MIC ([1]; AB4269, read-out: MIC of Iron Chelators): 250 µg/mL
- MIC ([1]; AB4448, read-out: MIC of Iron Chelators): 250 µg/mL
- MIC ([1]; AB4456, read-out: MIC of Iron Chelators): 250 µg/mL
- MIC ([1]; AB4490, read-out: MIC of Iron Chelators): 250 µg/mL
- MIC ([1]; AB4498, read-out: MIC of Iron Chelators): 500 µg/mL
- MIC ([1]; AB4795, read-out: MIC of Iron Chelators): 250 µg/mL
- MIC ([1]; AB4857, read-out: MIC of Iron Chelators): 500 µg/mL
- MIC ([1]; AB4878, read-out: MIC of Iron Chelators): 500 µg/mL
- MIC ([1]; AB4932, read-out: MIC of Iron Chelators): 500 µg/mL
- MIC ([1]; AB4957, read-out: MIC of Iron Chelators): 500 µg/mL
- MIC ([1]; AB4991, read-out: MIC of Iron Chelators): 250 µg/mL
- MIC ([1]; AB5001, read-out: MIC of Iron Chelators): 250 µg/mL
- MIC ([1]; AB5075, read-out: MIC of Iron Chelators): 250 µg/mL
- MIC ([1]; AB5197, read-out: MIC of Iron Chelators): 250 µg/mL
- MIC ([1]; AB5256, read-out: MIC of Iron Chelators): 250 µg/mL
- MIC ([1]; AB5674, read-out: MIC of Iron Chelators): 250 µg/mL
- MIC ([1]; AB5711, read-out: MIC of Iron Chelators): 250 µg/mL
- MIC (Acinetobacter baumannii; ATCC17978, ATCC 17978, Table 1, read-out: MIC of Iron Chelators): 125 µg/mL
- MIC (Acinetobacter baumannii; ATCC19606, ATCC 19606, Table 1, read-out: MIC of Iron Chelators): 125 µg/mL
- MIC (S. aureus; ATCC25923, ATCC 25923): 250 µg/mL
- MIC (S. aureus; ATCC 43300 (MRSA)): 250 µg/mL
- MIC (E. coli; ATCC35218, ATCC 35218): > 500 µg/mL
- MIC (E. coli; ATCC43888, ATCC 43888 (0157:H7)): > 500 µg/mL
- MIC (K. pneumonia; ATCC700603, ATCC 700603): > 500 µg/mL
- MIC (K. pneumonia; BAA2146, BAA-2146): > 500 µg/mL
- MIC (P. aeruginosa; ATCC27853, ATCC 27853): > 500 µg/mL
- MIC (P. aeruginosa; PAO1): > 500 µg/mL
- effect on CFU/ml (time-kill, FIG. 13) ([2]; 0.5 MIC): inhibitory effect on the CFU/ml
- CFU/mL at 24 hours ([2]; 0.5 MIC, CAMHB): about 1×10^9 CFU/mL
- time-kill course of CFU/mL ([2]; 0.5×MIC, CAMHB): initial decrease in CFU/mL at 2 and 6 hours, but rebounded
- effect on CFU/ml (time-kill, FIG. 13) ([2]; 1×MIC): inhibitory effect on the CFU/ml
- time-kill course of CFU/mL ([2]; 1×MIC, CAMHB): did not increase in CFU over the 24 hour period
- effect on CFU/ml (time-kill, FIG. 13) ([2]; 2×MIC): inhibitory effect on the CFU/ml
- time-kill course of CFU/mL ([2]; 2×MIC, CAMHB): decrease in CFU/mL after 2 hours that was sustained through the 24 hour period
- FIC ([3]; AB 17978, in combination with Amikacin): 1.25
- FIC ([3]; AB 17978, in combination with Cefotaxine): 0.75
- FIC ([3]; AB 17978, in combination with Colisitin (Colistin)): 0.75
- FIC ([3]; AB 17978, in combination with Doxycycline): 1.25
- FIC ([3]; AB 17978, in combination with Rifampin): 0.75
- FIC ([3]; AB 19606, in combination with Amikacin): 1.25
- FIC ([3]; AB 19606, in combination with Cefotaxine): 1.25
- FIC ([3]; AB 19606, in combination with Colisitin (Colistin)): 0.75
- FIC ([3]; AB 19606, in combination with Doxycycline): 2.25
- FIC ([3]; AB 19606, in combination with Rifampin): 1.25
